The test system of data set [1] is shaved skin of albino rabbits. The experiment in a line: Skin irritation test. In kind it is in vivo, rabbit. To be noted: scale 1 (no irritation) to 10 (maximum irritation); 24 hours exposure. The source says: (§1) Only very mild irritation (score 2 on a 1-10 scale) was observed.
The test system of data set [2] is eye (conjunctiva) of albino rabbits. The experiment in a line: Eye irritation test. As to conditions: 1-10 scale. In kind it is in vivo, rabbit.
Text: as §1

The nature of data set [3]: In vitro water binding capacity, stratum corneum pieces, 6 hrs at 85% relative humidity. As to conditions: for Water binding capacity after 6 hrs: aqueous 10% by weight solution; for Uptake of water after 6 hrs / Uptake of water after 6 hrs %: pre-incubated with 10% (by weight) solution, relative humidity 85%, room temperature.
Data set [4] can be described thus: In vitro water binding capacity, stratum corneum pieces, 24 hours at 85% relative humidity. On the set-up: species or system human. To be noted: after 24 hours, mean, pentane-1,5-diol 20%, urea 10%, control water content subtracted. As for the experimental part:
Pieces of stratum corneum from the sole of 7 healthy volunteers were used. […] The specimens were removed after 24 hours for weighing. […] The water binding capacity was estimated by subtracting the WC for stratum corneum incubated with distilled water for 24 hours from the WC for the stratum corneum pieces incubated with the test substances for 24 hours. […] While the latter composition does give rise to itching when applied to eczematous skin, this negative effect is not encountered with the composition according to the invention.

The mark [5] stands for this setting: aqueous solution containing 20% of pentane-1,5-diol.

This note sets out measurements from patent US8642053B2, “Potentiated topical composition” (priority 2001, dated 2014).

With `OCCCCCO` [pentane-1,5-diol], the Skin irritation score in data set [1] stood at 1. For the same compound, the Eye irritation score in data set [2] is recorded as 2. For the same compound, in data set [3], the “Water binding capacity after 6 hrs” value is 9 % by weight, the “Uptake of water after 6 hrs” value turned out to be 0.0075 mg and the “Uptake of water after 6 hrs %” value turned out to be 20%. In data set [3] (setting [5]), the Water binding capacity is 13 % by weight and the Water content is recorded as 24%. In data set [4], the Water binding capacity is on record as 23%. The Water binding capacity in data set [4] (listed as Pentane-1,5-diol) is 23%.

On to `NC(N)=O` [urea], for which, in data set [3], the “Water binding capacity after 6 hrs” value was 17 % by weight, the “Uptake of water after 6 hrs” value turned out to be 0.0109 mg and the “Uptake of water after 6 hrs %” value is on record as 28%. In data set [4], this compound showed a Water binding capacity of 16%. The Water binding capacity in data set [4] (listed as Urea) was determined as 16%.

For `CC(O)CO` (centres unmarked) [propane-1,2-diol], in data set [3], the “Water binding capacity after 6 hrs” value was found to be 7 % by weight, the “Uptake of water after 6 hrs” value is reported as 0.0032 mg and the “Uptake of water after 6 hrs %” value turned out to be 18%.
